# US20260015358A1, “BICYCLIC DERIVATIVES, COMPOSITIONS AND USES THEREOF” (Danatlas Pharmaceuticals Co., Ltd., priority 2023, published 2026)
# What was measured:
# [1] = molecular target: T1, WRN [UniPro: Q14191 (WRN_HUMAN), N500-C946] (Homo sapiens (Human), UniProt Q14191); assay: WRN unwinding assay (FORKF DNA, fluorescence); format: biochemical; conditions: Table 14
# [2] = molecular target: T1, WRN [UniPro: Q14191 (WRN_HUMAN), N500-C946]; assay: WRN ATPase assay (ADP-Glo); format: biochemical; conditions: WRN enzymatic activity assay
# T1 sequence (Q14191 500-946): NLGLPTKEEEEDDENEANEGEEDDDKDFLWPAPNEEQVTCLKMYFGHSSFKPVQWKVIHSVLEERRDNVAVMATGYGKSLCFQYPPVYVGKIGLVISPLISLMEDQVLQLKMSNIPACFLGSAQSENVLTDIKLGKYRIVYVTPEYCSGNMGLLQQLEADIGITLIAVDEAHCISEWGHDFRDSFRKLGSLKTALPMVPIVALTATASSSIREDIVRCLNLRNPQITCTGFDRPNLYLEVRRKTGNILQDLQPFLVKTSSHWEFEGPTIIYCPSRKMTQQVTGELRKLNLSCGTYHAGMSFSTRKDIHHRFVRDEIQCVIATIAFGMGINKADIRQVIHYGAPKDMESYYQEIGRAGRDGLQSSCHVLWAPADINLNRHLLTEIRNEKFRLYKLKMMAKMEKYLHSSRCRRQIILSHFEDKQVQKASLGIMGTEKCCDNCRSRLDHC
IC50 [1] [nM],IC50 [2] [nM],SMILES
< 100,< 100,"CCc1c(N2CCN(C(=O)CNC(=O)c3nc(C)cs3)CC2)c(=O)n2nc(C3=CCOCC3)nc2n1CC(=O)Nc1ccc(C(F)(F)F)cc1Cl [Example 346, N-(2-(4-(4-(2-((2-Chloro-4-(trifluoromethyl)phenyl)amino)-2-oxoethyl)-2-(3,6-dihydro-2H-pyran-4-yl)-5-ethyl-7-oxo-4,7-dihydro-[1,2,4]triazolo[1,5-a]pyrimidin-6-yl)piperazin-1-yl)-2-oxoethyl)-4-methylthiazole-2-carboxamide]"
< 100,< 100,"CCc1c(N2CCN(C(=O)CNC(=O)c3cc(NC)ccc3F)CC2)c(=O)n2nc(C3=CCOCC3)nc2n1CC(=O)Nc1ccc(C(F)(F)F)cc1Cl [Example 289, N-(2-(4-(4-(2-((2-Chloro-4-(trifluoromethyl)phenyl)amino)-2-oxoethyl)-2-(3,6-dihydro-2H-pyran-4-yl)-5-ethyl-7-oxo-4,7-dihydro-[1,2,4]triazolo[1,5-a]pyrimidin-6-yl)piperazin-1-yl)-2-oxoethyl)-2-fluoro-5-(methylamino)benzamide]"
< 100,< 100,"CCc1c(N2CCN(C(=O)CNC(=O)c3cccc4nonc34)CC2)c(=O)n2nc(C3=CCOCC3)nc2n1CC(=O)Nc1ccc(C(F)(F)F)cc1Cl [Example 383, N-(2-(4-(4-(2-((2-Chloro-4-(trifluoromethyl)phenyl)amino)-2-oxoethyl)-2-(3,6-dihydro-2H-pyran-4-yl)-5-ethyl-7-oxo-4,7-dihydro-[1,2,4]triazolo[1,5-a]pyrimidin-6-yl)piperazin-1-yl)-2-oxoethyl)benzo[c][1,2,5]oxadiazole-4-carboxamide]"
< 100,< 100,"CCc1c(N2CCN(C(=O)CNC(=O)CC(C)C)CC2)c(=O)n2nc(C3=CCOCC3)nc2n1CC(=O)Nc1ccc(C(F)(F)F)cc1Cl [Example 320, N-(2-(4-(4-(2-((2-Chloro-4-(Trifluoromethyl)phenyl)amino)-2-oxoethyl)-2-(3,6-dihydro-2H-pyran-4-yl)-5-ethyl-7-oxo-4,7-dihydro-[1,2,4]triazolo[1,5-a]pyrimidin-6-yl)piperazin-1-yl)-2-oxoethyl)-3-methylbutanamide]"
100 to 1000,100 to 1000,"CCc1c(N2CCN(C(=O)C(=O)N3CCCC3)CC2)c(=O)n2nc(C3=CCOCC3)nc2n1CC(=O)Nc1ccc(C(F)(F)F)cc1Cl [Example 358, N-(2-Chloro-4-(trifluoromethyl)phenyl)-2-(2-(3,6-dihydro-2H-pyran-4-yl)-5-ethyl-7-oxo-6-(4-(2-oxo-2-(pyrrolidin-1-yl)acetyl)piperazin-1-yl)-[1,2,4]triazolo[1,5-a]pyrimidin-4(7H)-yl)acetamide]"
100 to 1000,100 to 1000,"CCc1c(N2CCN(C(=O)CNC(=O)c3ccccc3F)CC2)c(=O)n2nc(N3CCOCC3)cc2n1CC(=O)Nc1ccc(C(F)(F)F)cc1Cl [Example 344, N-(2-(4-(4-(2-((2-chloro-4-(trifluoromethyl)phenyl)amino)-2-oxoethyl)-5-ethyl-2-morpholino-7-oxo-4,7-dihydropyrazolo[1,5-a]pyrimidin-6-yl)piperazin-1-yl)-2-oxoethyl)-2-fluorobenzamide]"
< 100,< 100,"CCc1c(N2CCN(C(=O)CNC(=O)[C@@H]3CCCO3)CC2)c(=O)n2nc(C3=CCOCC3)nc2n1CC(=O)Nc1ccc(C(F)(F)F)cc1Cl [Example 322, (S)—N-(2-(4-(4-(2-((2-Chloro-4-(trifluoromethyl)phenyl)amino)-2-oxoethyl)-2-(3,6-dihydro-2H-pyran-4-yl)-5-ethyl-7-oxo-4,7-dihydro-[1,2,4]triazolo[1,5-a]pyrimidin-6-yl)piperazin-1-yl)-2-oxoethyl)tetrahydrofuran-2-carboxamide]"
< 100,< 100,"CCc1c(N2CCN(C(=O)CNC(=O)c3nccs3)CC2)c(=O)n2nc(C3=CCOCC3)nc2n1CC(=O)Nc1ccc(C(F)(F)F)cc1Cl [Example 100, N-(2-(4-(4-(2-((2-Chloro-4-(trifluoromethyl)phenyl)amino)-2-oxoethyl)-2-(3,6-dihydro-2H-pyran-4-yl)-5-ethyl-7-oxo-4,7-dihydro-[1,2,4]triazolo[1,5-a]pyrimidin-6-yl)piperazin-1-yl)-2-oxoethyl)thiazole-2-carboxamide]"
< 100,< 100,"CCc1c(N2CCN(C(=O)CNC(=O)NCC3CC3)CC2)c(=O)n2nc(C3=CCOCC3)nc2n1CC(=O)Nc1ccc(C(F)(F)F)cc1Cl [Example 190, N-(2-Chloro-4-(trifluoromethyl)phenyl)-2-(6-(4-(((cyclopropylmethyl)carbamoyl)glycyl)piperazin-1-yl)-2-(3,6-dihydro-2H-pyran-4-yl)-5-ethyl-7-oxo-[1,2,4]triazolo[1,5-a]pyrimidin-4(7H)-yl)acetamide]"
< 100,< 100,"CCc1c(N2CCN(C(=O)CNC(=O)c3ccccc3)CC2)c(=O)n2nc(C3=CCOCC3)nc2n1CC(=O)Nc1ccc(C(F)(F)F)cc1Cl [Example 93, N-(2-(4-(4-(2-((2-Chloro-4-(trifluoromethyl)phenyl)amino)-2-oxoethyl)-2-(3,6-dihydro-2H-pyran-4-yl)-5-ethyl-7-oxo-4,7-dihydro-[1,2,4]triazolo[1,5-a]pyrimidin-6-yl)piperazin-1-yl)-2-oxoethyl)benzamide]"
< 100,< 100,"CCc1c(N2CCN(C(=O)CNC(=O)c3ccccc3O)CC2)c(=O)n2nc(C3=CCOCC3)nc2n1CC(=O)Nc1ccc(C(F)(F)F)cc1Cl [Example 269, N-(2-(4-(4-(2-((2-Chloro-4-(trifluoromethyl)phenyl)amino)-2-oxoethyl)-2-(3,6-dihydro-2H-pyran-4-yl)-5-ethyl-7-oxo-4,7-dihydro-[1,2,4]triazolo[1,5-a]pyrimidin-6-yl)piperazin-1-yl)-2-oxoethyl)-2-hydroxybenzamide]"
< 100,< 100,"CCc1c(N2CCN(C(=O)CNC(=O)c3cccc(F)c3O)CC2)c(=O)n2nc(C3=CCOCC3)nc2n1CC(=O)Nc1ccc(C(F)(F)F)cc1Cl [Example 211, N-(2-(4-(4-(2-((2-Chloro-4-(trifluoromethyl)phenyl)amino)-2-oxoethyl)-2-(3,6-dihydro-2H-pyran-4-yl)-5-ethyl-7-oxo-4,7-dihydro-[1,2,4]triazolo[1,5-a]pyrimidin-6-yl)piperazin-1-yl)-2-oxoethyl)-3-fluoro-2-hydroxybenzamide]"
< 100,100 to 1000,"CCc1c(N2CCN(C(=O)c3ncc(F)cc3N)CC2)c(=O)n2nc(C3=CCOCC3)nc2n1CC(=O)Nc1ccc(C(F)(F)F)cc1Cl [Example 46, 2-(6-(4-(3-Amino-5-fluoropicolinoyl)piperazin-1-yl)-2-(3,6-dihydro-2H-pyran-4-yl)-5-ethyl-7-oxo-[1,2,4]triazolo[1,5-a]pyrimidin-4(7H)-yl)-N-(2-chloro-4-(trifluoromethyl)phenyl)acetamide]"
< 100,< 100,"CCc1c(N2CCN(C(=O)CNC(=O)c3ncco3)CC2)c(=O)n2nc(C3=CCOCC3)nc2n1CC(=O)Nc1ccc(C(F)(F)F)cc1F [Example 217, N-(2-(4-(2-(3,6-Dihydro-2H-pyran-4-yl)-5-ethyl-4-(2-((2-fluoro-4-(trifluoromethyl)phenyl)amino)-2-oxoethyl)-7-oxo-4,7-dihydro-[1,2,4]triazolo[1,5-a]pyrimidin-6-yl)piperazin-1-yl)-2-oxoethyl)oxazole-2-carboxamide]"
< 100,< 100,"CCc1c(N2CCN(C(=O)CNC(=O)N3CCc4ccccc43)CC2)c(=O)n2nc(C3=CCOCC3)nc2n1CC(=O)Nc1ccc(C(F)(F)F)cc1Cl [Example 182, N-(2-(4-(4-(2-((2-Chloro-4-(trifluoromethyl)phenyl)amino)-2-oxoethyl)-2-(3,6-dihydro-2H-pyran-4-yl)-5-ethyl-7-oxo-4,7-dihydro-[1,2,4]triazolo[1,5-a]pyrimidin-6-yl)piperazin-1-yl)-2-oxoethyl) indoline-1-carboxamide]"
< 100,< 100,"CCc1c(N2CCN(C(=O)c3nnc(C)[nH]c3=O)CC2)c(=O)n2nc(C3=CCOCC3)nc2n1CC(=O)Nc1ccc(C(F)(F)F)cc1Cl [Example 56, N-(2-Chloro-4-(trifluoromethyl)phenyl)-2-(2-(3,6-dihydro-2H-pyran-4-yl)-5-ethyl-6-(4-(3-methyl-5-oxo-4,5-dihydro-1,2,4-triazine-6-carbonyl)piperazin-1-yl)-7-oxo-[1,2,4]triazolo[1,5-a]pyrimidin-4(7H)-yl)acetamide]"
< 100,< 100,"CCc1c(N2CCN(C(=O)c3cc4ccsc4[nH]c3=O)CC2)c(=O)n2nc(C3=CCOCC3)nc2n1CC(=O)Nc1ccc(C(F)(F)F)cc1Cl [Example 71, N-(2-Chloro-4-(trifluoromethyl)phenyl)-2-(2-(3,6-dihydro-2H-pyran-4-yl)-5-ethyl-7-oxo-6-(4-(6-oxo-6,7-dihydrothieno[2,3-b]pyridine-5-carbonyl)piperazin-1-yl)-[1,2,4]triazolo[1,5-a]pyrimidin-4(7H)-yl)acetamide]"
< 100,< 100,"CCc1c(N2CCN(C(=O)C(=O)Nc3nc(C)co3)CC2)c(=O)n2nc(C3=CCOCC3)nc2n1CC(=O)Nc1ccc(C(F)(F)F)cc1F [Example 355, 2-(4-(2-(3,6-Dihydro-2H-pyran-4-yl)-5-ethyl-4-(2-((2-fluoro-4-(trifluoromethyl)phenyl)amino)-2-oxoethyl)-7-oxo-4,7-dihydro-[1,2,4]triazolo[1,5-a]pyrimidin-6-yl)piperazin-1-yl)-N-(4-methyloxazol-2-yl)-2-oxoacetamide]"
< 100,100 to 1000,"CCc1c(N2CCN(C(=O)CNC(=O)c3csc(C)n3)CC2)c(=O)n2nc(C3=CCOCC3)nc2n1CC(=O)Nc1ccc(C(F)(F)F)cc1Cl [Example 105, N-(2-(4-(4-(2-((2-Chloro-4-(trifluoromethyl)phenyl)amino)-2-oxoethyl)-2-(3,6-dihydro-2H-pyran-4-yl)-5-ethyl-7-oxo-4,7-dihydro-[1,2,4]triazolo[1,5-a]pyrimidin-6-yl)piperazin-1-yl)-2-oxoethyl)-2-methylthiazole-4-carboxamide]"
